pIC50: −log10 of the molar value. Several values for one entry are separate records, joined by “and”; a condition that tells them apart may be missing. Equal entries are not always repeated.

The assay concerns 922993-354-T-J3-PDC complex spheroids, viability. In words: Anticancer human tumor 922993-354-T-J3-PDC patient-derived endometrial carcinoma cell line growth inhibition [GQUAD]. The note with it: for viability, T/C: stronger effect = lower value. An excerpt:
DNA G-quadruplex Stabilizer Agents in Combinations in Complex Spheroids
A high-throughput screen of multi-cell type tumor spheroids was designed to identify active combinations of DNA G-quadruplex stabilizer agents and targeted small molecules. Complex spheroids include a stromal component modeled by human endothelial cells (HUVEC) and fibroblasts modeled by human mesenchymal stem cells (MSCs). The concentration ranges selected for each drug and investigational agent were based upon clinically achievable concentrations if the clinical Cmax of the agent was known.
Compounds. The drugs and investigational agents: pidnarulex (CX-5461; NSC782164), APTO-253 (NSC789042), BRACO-19 (NSC847499), peposertib (NSC802822), ceralasertib (NSC780249), elimusertib (NSC800525), camonsertib (NSC841442), AZD-1390 (NSC803789), olaparib (NSC753686), talazoparib (NSC767125), ART-558 (NSC835418), sotorasib (NSC818433), MRTX-1133 (NSC836407), SN-38 (NSC673596), topotecan (NSC609699), etoposide (NSC141540), doxorubicin (NSC123127), gemcitabine (NSC613327), 5-fluorouracil (NSC19893), paclitaxel (NSC125973), vemurafenib (NSC761431), panobinostat (NSC761190), R-306465 (JNJ-16241199; NSC773264), adavosertib (NSC754352), TP-3654 (NSC805149), carboplatin (NSC241240), KSQ-4279 (NSC840948), and staurosporine (NSC755774) were obtained from the National Cancer Institute (NCI) Developmental Therapeutics Program Chemical Repository (34). The FDA-approved anticancer drug set is available from the NCI Developmental Therapeutics Program. […] The stock solutions were prepared in dimethyl sulfoxide (DMSO, Sigma-Aldrich, St. Louis, MO, cat. D2650) at 800-fold the tested concentration and stored at -70 degrees C prior to their use. All drugs and investigational agents were tested over a range starting from a high concentration at or near the clinical Cmax and decreasing in half-log increments. If the clinical Cmax for an agent had not been determined, the highest concentration tested was 10 microM.
2.3 Cell Culture. All cells were maintained in an incubator at 37 degrees C and 5% CO2 with 95% humidity. The PDC lines were cultured according to standard operating procedures established by the NCI PDMR. All PDCs were thawed and cultured in Matrigel-coated flasks prepared with a working solution of 1X Ham's F-12 nutrient mix, without supplementation (Invitrogen, cat. 11765054), 100 U/mL penicillin-streptomycin (Invitrogen, cat. 15140122), and 2.5% Matrigel (Corning Inc., cat. 354248) for the first three passages. The 857933-349-R-J2-PDC line was cultured in 6C/Colon 1B media, which includes advanced DMEM/F-12 (Thermo Fisher Scientific, cat. 12634028), 10 mM HEPES (Thermo Fisher Scientific, cat. 15630080), 1X GlutaMAX supplement (Thermo Fisher Scientific, cat. 35050061), 0.1 mg/mL primocin (InvivoGen, cat. ant-pm-2), 10% defined fetal bovine serum, heat inactivated (HyClone Laboratories Inc., cat. SH30070.03HI), 50% L-WRN conditioned media (ATCC, cat. CRL-3276), 1.25 mM N-Acetyl-L-cysteine (Sigma-Aldrich, cat. A9165), 10 mM nicotinamide (Sigma-Aldrich, cat. N0636), 1X B-27 supplement (Thermo Fisher Scientific, cat. 17504044), 1X N-2 supplement (Thermo Fisher Scientific, cat. 17502048), 10 microM Y-27632 dihydrochloride (Tocris Bioscience, cat. 1254), and 50 ng/mL human EGF recombinant protein (Thermo Fisher Scientific, cat. PHG0311). The 485176-168-R4-J1-PDC line was cultured in Panc media, which includes all 6C/Colon 1B media components plus 100 ng/mL human FGF-10 (Thermo Fisher Scientific, cat. 100-26), 500 nM SB-431542 (Selleckchem, cat. S1067), and gastrin (Tocris, cat. 3006).
[…]
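Note: spheroids exposed to compounds for seven days.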

The viability, T/C is the result in the treated group divided by that in the control group, in per cent. The term pIC50 denotes −log10 of the IC50, conventionally taken in molar units. As for `C=CCn1c(=O)c2cnc(Nc3ccc(N4CCN(C)CC4)cc3)nc2n1-c1cccc(C(C)(C)O)n1`, the viability, T/C was 79.8% and 93.2% and 78.9% (compound 0.0316 µM); 83.2% and 85.1% and 115% (compound 0.1 µM); 107% and 109% and 113% (compound 0.316 µM); 97.1% and 94.7% and 90.2% (compound 1 µM); 66.1% and 73.2% and 82.1% (compound 3.16 µM); 14.4% and 13.4% and 27.5% (compound 10 µM). Besides, the pIC50 (curve of compound) is 5.34 and 5.31 and 5.21.
With `Cc1[nH]c2ccccc2c1CCNCc1ccc(/C=C/C(=O)NO)cc1`, the viability, T/C runs as follows: (compound 0.000999 µM) 83.6% and 110% and 88.9%; (compound 0.00316 µM) 102% and 93.8% and 74%; (compound 0.00999 µM) 70% and 75.6% and 89.6%; (compound 0.0316 µM) 101% and 89% and 85.7%; (compound 0.0999 µM) 63.2% and 87.7% and 68.7%; (compound 0.316 µM) 57.2% and 55.4% and 52.3%. The pIC50 (curve of compound) was below 6.50.
`CC1COCCN1c1cc(C2(O)CC3CCC(C2)O3)c2cnn(-c3ccn[nH]3)c2n1` (configuration not stated) + Cc1[nH]c2ccc(F)cc2c1-c1nc2c3cccnc3c3ncccc3c2[nH]1: the pIC50 (curve of first compound, second compound 0.0316 µM) is 6.48; the pIC50 (curve of first compound, second compound 0.1 µM) is 6.28; the negative-log IC50 (pIC50) (curve of first compound, second compound 0.316 µM) was 6.18; the pIC50 (curve of first compound, second compound 1 µM) was 6.45; the pIC50 (curve of first compound, second compound 3.16 µM) was 6.21; the pIC50 (curve of first compound, second compound 10 µM) is 6.36. For the same compound, the viability, T/C (second compound 0.0316 µM, first compound 0.0316 µM) was 87.8%; the viability, T/C (second compound 0.0316 µM, first compound 0.1 µM) was 67.6%; the viability, T/C (second compound 0.0316 µM, first compound 0.316 µM) is 50.8%; the viability, T/C (second compound 0.0316 µM, first compound 1 µM) was 37.5%; the viability, T/C (second compound 0.0316 µM, first compound 3.16 µM) was 19.9%; the viability, T/C (second compound 0.0316 µM, first compound 10 µM) is 15.1%. Also, the viability, T/C is, setting by setting: (second compound 0.1 µM, first compound 0.0316 µM) 85.7%; (second compound 0.1 µM, first compound 0.1 µM) 84.5%; (second compound 0.1 µM, first compound 0.316 µM) 62.2%; (second compound 0.1 µM, first compound 1 µM) 33.3%; (second compound 0.1 µM, first compound 3.16 µM) 21.2%; (second compound 0.1 µM, first compound 10 µM) 18.5%. The viability, T/C (second compound 0.316 µM, first compound 0.0316 µM) was 85.4%; the viability, T/C (second compound 0.316 µM, first compound 0.1 µM) is 94.3%; the viability, T/C (second compound 0.316 µM, first compound 0.316 µM) was 69.9%; the viability, T/C (second compound 0.316 µM, first compound 1 µM) is 37.2%; the viability, T/C (second compound 0.316 µM, first compound 3.16 µM) was 22%; the viability, T/C (second compound 0.316 µM, first compound 10 µM) was 13.3%. Also, the viability, T/C by setting is: (second compound 1 µM, first compound 0.0316 µM) 84.4%; (second compound 1 µM, first compound 0.1 µM) 96.7%; (second compound 1 µM, first compound 0.316 µM) 52.9%; (second compound 1 µM, first compound 1 µM) 30.7%; (second compound 1 µM, first compound 3.16 µM) 24.4%; (second compound 1 µM, first compound 10 µM) 17.7%. For the same compound, the viability, T/C runs as follows: (second compound 3.16 µM, first compound 0.0316 µM) 86.4%; (second compound 3.16 µM, first compound 0.1 µM) 70.5%; (second compound 3.16 µM, first compound 0.316 µM) 68.6%; (second compound 3.16 µM, first compound 1 µM) 37.1%; (second compound 3.16 µM, first compound 3.16 µM) 27.4%; (second compound 3.16 µM, first compound 10 µM) 19.6%. Further, the viability, T/C is 89.2% (second compound 10 µM, first compound 0.0316 µM); 77.5% (second compound 10 µM, first compound 0.1 µM); 53.3% (second compound 10 µM, first compound 0.316 µM); 37.6% (second compound 10 µM, first compound 1 µM); 23.6% (second compound 10 µM, first compound 3.16 µM); 18.2% (second compound 10 µM, first compound 10 µM).
For the compound `C#Cc1c(F)ccc2cc(O)cc(-c3ncc4c(N5CC6CCC(C5)N6)nc(OCC56CCCN5CC(F)C6)nc4c3F)c12` (configuration not stated), the viability, T/C is, setting by setting: (compound 0.0316 µM) 84.5% and 92.3% and 99.3%; (compound 0.1 µM) 82.8% and 84% and 92.6%; (compound 0.316 µM) 89.6% and 103% and 84.7%; (compound 1 µM) 92.7% and 82.5% and 106%; (compound 3.16 µM) 76.5% and 96.3% and 94.4%; (compound 10 µM) 96.1% and 82.3% and 91.5%. For the same compound, the pIC50 (curve of compound) was below 5.00.
As to `CC1COCCN1c1cc(-c2ccnn2C)c2ccnc(-c3ccn[nH]3)c2n1` (configuration not stated), the viability, T/C runs as follows: (compound 0.0316 µM) 83.5% and 95% and 87.4%; (compound 0.1 µM) 71.5% and 63.7% and 70.4%; (compound 0.316 µM) 48.3% and 41.6% and 62.9%; (compound 1 µM) 22.1% and 12.8% and 28.7%; (compound 3.16 µM) 19.6% and 22% and 23.4%; (compound 10 µM) 16.8% and 19.2% and 17.7%. Further, under “curve of compound”, the pIC50 is 6.56 and 6.74 and 6.35.
Consider `Cc1[nH]c2ccc(F)cc2c1-c1nc2c3cccnc3c3ncccc3c2[nH]1`, for which, for the setting “compound 10 µM”, the viability, T/C was 106% [middle of 12 runs]. For the same compound, the pIC50 is below 5.00 (compound alone, run of 03/18/2024) and below 5.00 (compound alone, run of 03/26/2024).
For the compound `O=C(NO)c1cnc(N2CCN(S(=O)(=O)c3ccc4ccccc4c3)CC2)nc1`, the viability, T/C reads like this: (compound 0.0316 µM) 98.1% and 88.5% and 95.5%; (compound 0.1 µM) 71.3% and 68.2% and 82.4%; (compound 0.316 µM) 56% and 62% and 55.4%; (compound 1 µM) 36.7% and 32.2% and 32%; (compound 3.16 µM) 3.07% and 3.39% and 4.12%; (compound 10 µM) 0.53% (2×) and 0.58%. The pIC50 (curve of compound) is 6.42 and 6.35 and 6.37.
Turning to `CC1COCCN1c1cc(C2(S(C)(=N)=O)CC2)nc(-c2ccnc3[nH]ccc23)n1` (configuration not stated), the viability, T/C runs as follows: (compound 0.0316 µM) 99.8% and 96.6% and 97.3%; (compound 0.1 µM) 93.4% and 96.7% and 96.8%; (compound 0.316 µM) 91.8% and 84.6% and 95.6%; (compound 1 µM) 106% and 98.6% (2×); (compound 3.16 µM) 93.7% and 129% and 92.5%; (compound 10 µM) 65.3% and 70.4% and 60.7%. In addition, the pIC50 (curve of compound) was below 5.00.

Source of the values: PubChem BioAssay AID2060489 (Molecular Pharmacology Branch, DTP, NCI, 2025).
